Experimental data published in paper PMC11400633, “Peptides inhibiting the assembly of monomeric human L‐lactate dehydrogenase into catalytically active homotetramer decrease the synthesis of lactate in cultured cells” (Protein Science : A Publication of the Protein Society, 2024).
Where “and” joins values, the source holds several entries; their conditions need not be identical. Identical values can stand only once. Like-named read-outs stand apart in the source and are kept apart here. One block for each compound: values may come before it. *1 amine or outer side, *2 acyl side, *3 side chain or, on linkers, in order; H or OH if unused. [ ]: non-standard residue; d: D form. βAsp = O=C(O)[C@H](CC(=O)[*:2])N[*:1]

Experiments:
[1] = system: LDH‐5; conditions: LDH-5 exposed to pH 2.5, incubated with peptide 2 min, then pH 7.4; ref Nadal‐Bufi et al., 2021; cited from earlier work
Source text: In particular, the loss of activity related to the dissociation of tetrameric LDH‐A (Hermann et al., [1981]; Pasti et al., [2022]) prompts the search for peptides able to interfere with the quaternary structure of this enzyme. Peptides can indeed mimic a secondary structure element supposed to be a major determinant of the reciprocal interactions engaged by the subunits of an oligomeric protein (Wang et al., [2021]). Nevertheless, it should be noted that the effectivenes ... || Structurally speaking, the four subunits of LDH‐5 are arranged as a binary association of dimers, with their N‐ and C‐terminal regions reciprocally engaged in dimer‐dimer interactions (Read et al., [2001]). […] Moreov ...

[2] = molecular target: dimeric LDH‐B; conditions: ref Thabault et al., 2020; read-out: K D for dimeric LDH‐B; cited from earlier work
Source text: In particular, the loss of activity related to the dissociation of tetrameric LDH‐A (Hermann et al., [1981]; Pasti et al., [2022]) prompts the search for peptides able to interfere with the quaternary structure of this enzyme. Peptides can indeed mimic a secondary structure element supposed to be a major determinant of the reciprocal interactions engaged by the subunits of an oligomeric protein (Wang et al., [2021]). Nevertheless, it should be noted that the effectivenes ...

[3] = system: BxPC3 cells; experiment: Colorimetric assay of lactate secretion by BxPC3 cells (expressing LDH-B); type: cell-based, human; conditions: BxPC3, 80 μM peptide with Lipofectamine 2000 (0.5% v/v), 1% DMSO, Krebs-Ringer buffer, 4 h, 37°C, n = 3
Source text: Having identified peptides able to interfere with the assembly of monomeric LDH‐A into catalytically active tetramer, we considered of interest to test the action of peptides against LDH‐A expressed in human cell lines. In particular, we analyzed the lactate secreted by cultured human cells exposed or not to the peptides better performing as inhibitors of LDH‐A in vitro, that is, TH1, TH2, and TH16. Moreover, we used two different cell lines exclusively expressing LDH‐A or LDH‐B, that is, MCF7 and BxPC3, respectively. In MCF7 cells, the [mRNALDH‐A]/[mRNALDH‐B] ratio is indeed equal to ca. 150 (Figure 9a), whereas in BxPC3 cells the messenger coding for LDH‐A was not detected (Figure 9a). Therefore, by comparing the decrease, if any, of the lactate concentration secreted by these two cell lines the selectivity of peptides acting against LDH‐A or LDH‐B can be conveniently estimated. When the MCF7 cell line is considered, the linear TH16 and the cyclic TH2 tetrapeptide performed equally, being both responsible for a concentration of secreted lactate 20% lower than that detected in their absence (Figure 9b). […] It should indeed be noted that the assays with cells were performed in the presence of lipofectamine (see Section 5). […] Accordingly, it seems likely that lipofectamine is effective in assisting the penetration of the TH16 and TH2 peptides into cells, with this action of lipofectamine being much weaker when dealing with a larger molecule, that is, an octapeptide.
To evaluate the competence of peptides in inhibiting the action of LDH‐A in cultured cells, two human cell cultures were used: MCF7 and BxPC3, isolated from breast and pancreatic adenocarcinoma, respectively. […]
The competence of peptides in inhibiting LDH in cultured cells was tested by assessing the concentration of lactate released by MCF7 and BxPC3 cell cultures. […] The concentration of lactate released in the Krebs–Ringer buffer was determined after 4 h of incubation at 37°C, using the colorimetric assay previously reported (Rossi et al., [2023]). […]

[4] = molecular target: T1, monomeric human LDH‐A (Homo sapiens, UniProt P00338); experiment: Inhibition by peptides of LDH-A activity gained on assembly of monomeric LDH-A into tetramer; type: biochemical; conditions: 80 μM peptide incubated 5 min with 6.2 nM monomeric LDH-A, 10 mM Tris-HCl + 10 mM BisTris pH 7.5, started with 125 μM β-NADH and 500 μM pyruvate, 25°C, A340, vs control with 1% DMSO, mean ± SD, n = 3
T1 construct: made in house; host or cells: E. coli BL21(DE3), pET9a (NdeI/BamHI)
Experimental: In particular, all the peptides were tested at 80 μM (final concentration), and the LDH activity detected in their presence was compared with the catalytic action observed with control samples devoid of any peptide. First, we decided to assay the octameric peptide TH1, the primary structure of which ([…]) is identical to the LDH‐A region spanning residues 295–302. […] Indeed, the catalytic action exerted by 6 nM tetrameric LDH‐A (in 10 mM Tris–HCl, pH 7.5, containing 150 mM NaCl) was determined as equal to 433 ± 11 and 452 ± 19 nM/s in the absence and in the presence of 80 μM TH1 octapeptide, respectively. Overall, this insensitivity along with the significant effect elicited by TH1 on monomeric LDH‐A indicate that the octapeptide inhibits the assembly of LDH‐A monomers into the corresponding, catalytically active, tetramer. To dissect the inhibition triggered by TH1 on monomeric LDH‐A, we decided to evaluate: (i) whether or not the two halves of the octapeptide, that is, GQNG and ISDL, are equally competent in inhibiting LDH‐A; (ii) the action of linear and cyclic peptides, containing or not D amino acids; and (iii) the effect, if any, triggered by the presence of protecting groups in the peptides to be assayed. It should be noted that to allow the cyclization of tetrapeptide GQNG while maintaining a terminal carboxylic group, the sequence was modified to GQND, while for the cyclization of ISDL while maintaining a terminal amino group, the sequence was modified into KSDL (Table 1).
FIGURE 8 Inhibition exerted by linear and cyclic peptides on LDH‐A activity detected in vitro. […] The gray bars (in “a” and “d”) represent the activity observed in the presence of the same volume of DMSO (1%, v/v) carried to the assay mixtures by the peptides to be tested. (a–c) The effect, if any, of tetrameric peptides featuring the GQND primary structure (see also Table 1) on LDH‐A activity is shown. The inhibition exerted by the octameric peptide TH1 is also reported in “a.” The enzyme activity observed in the presence of linear or cyclic peptides is shown in “b” and “c”, respectively. (d) Extent of LDH‐A activity detected in the presence of linear or cyclic tetrapeptides featuring the KSDL primary structure. Error bars represent SD (n = 3). The experimental observations were compared by Student's t‐test. The ***, **, and * symbols denote p values lower than 0.001, 0.01, and […], respectively. (e) Simulation of the association between the TH2 peptide and monomeric LDH‐A. Predicted interactions between the cyclopeptide c[GQN‐isoD] (TH2) and the N‐terminal sequence Y^9[…]^19, as simulated by molecular dynamics in a box of explicit TIP3P water molecules; gray and red dotted lines represent hydrogen bonds and salt bridges, respectively.
All the assays were performed at 25°C using a Cary 300 Bio spectrophotometer.

[5] = system: MCF7 cells; experiment: Colorimetric assay of lactate secretion by MCF7 cells (expressing LDH-A); type: cell-based, human
Source text: Having identified peptides able to interfere with the assembly of monomeric LDH‐A into catalytically active tetramer, we considered of interest to test the action of peptides against LDH‐A expressed in human cell lines. In particular, we analyzed the lactate secreted by cultured human cells exposed or not to the peptides better performing as inhibitors of LDH‐A in vitro, that is, TH1, TH2, and TH16. Moreover, we used two different cell lines exclusively expressing LDH‐A or LDH‐B, that is, MCF7 and BxPC3, respectively. In MCF7 cells, the [mRNALDH‐A]/[mRNALDH‐B] ratio is indeed equal to ca. 150 (Figure 9a), whereas in BxPC3 cells the messenger coding for LDH‐A was not detected (Figure 9a). Therefore, by comparing the decrease, if any, of the lactate concentration secreted by these two cell lines the selectivity of peptides acting against LDH‐A or LDH‐B can be conveniently estimated. When the MCF7 cell line is considered, the linear TH16 and the cyclic TH2 tetrapeptide performed equally, being both responsible for a concentration of secreted lactate 20% lower than that detected in their absence (Figure 9b). […] Accordingly, it seems likely that lipofectamine is effective in assisting the penetration of the TH16 and TH2 peptides into cells, with this action of lipofectamine being much weaker when dealing with a larger molecule, that is, an octapeptide.
To evaluate the competence of peptides in inhibiting the action of LDH‐A in cultured cells, two human cell cultures were used: MCF7 and BxPC3, isolated from breast and pancreatic adenocarcinoma, respectively. Cultures were grown in DMEM (MCF7) or RPMI medium (BxPC3), supplemented with 100 U/ml penicillin/streptomycin, 2 mM glutamine and 10% (v/v) FBS. All the components of the media used for cell culture were obtained from Merck‐Millipore.
The competence of peptides in inhibiting LDH in cultured cells was tested by assessing the concentration of lactate released by MCF7 and BxPC3 cell cultures. To this aim, cells were seeded in duplicate in 24‐wells plates (2 × 10^5/well) and let to adhere overnight; the culture medium was then replaced by Krebs‐Ringer buffer (300 μl/well). Stock solutions of peptides (8 mM in DMSO) were diluted in Krebs‐Ringer buffer to a final concentration of 640 μM and mixed with an equal volume of 4% (v/v, in Krebs‐Ringer buffer) Lipofectamine 2000 (Invitrogen). The final solution was thoroughly mixed, kept for 25 min at room temperature, and finally 100 μl were added to each plate well, obtaining a final peptide concentration equal to 80 μM. The concentration of lactate released in the Krebs–Ringer buffer was determined after 4 h of incubation at 37°C, using the colorimetric assay previously reported (Rossi et al., [2023]). Each experiment was performed in triplicate and included control samples consisting of untreated cell cultures exposed to the same final concentration of DMSO (1%, v/v) and Lipofectamine (0.5%, v/v) to which were exposed the samples treated with peptides.

[6] = molecular target: T1, monomeric human LDH‐A; experiment: Steady-state kinetics of pyruvate reduction by monomeric LDH-A (assembled monomers); type: biochemical; conditions: variable pyruvate, 125 μM β-NADH, 9.80 nM monomer, pH 7.5, 25°C
Experimental: (§1) To further characterize the catalytic action of monomeric LDH-A exposed to β-NADH and pyruvate, and therefore assembled into tetramer (cf. […] In addition, the kinetics of pyruvate reduction catalyzed by tetrameric LDH-A was assayed under the same conditions used for the monomeric enzyme. Structurally and functionally speaking, the availability of monomeric LDH-A does indeed provide an unprecedented and quite interesting tool to perform quantitative tests of the assembly of monomers into the corresponding catalytically active tetramer. […] In addition to this, the enzyme kinetic parameters were also determined testing reaction velocity as a function of β-NADH concentration, in the presence of 500 μM pyruvate. […] The continuous lines represent the best fit of the Michaelis-Menten equation to the experimental observations. […] The continuous lines represent the best fit of the Michaelis-Menten equation to the experimental observations. (c) Kinetic parameters determined by performing activity assays using monomeric or tetrameric LDH-A, at the indicated final concentrations. Under conditions of variable pyruvate concentration, β-NADH was always used at 125 μM. When reaction mixtures contained variable concentrations of the redox cofactor, pyruvate was invariably added at 500 μM. All the assays were performed at pH 7.5 (Tris-BisTris, 10 mM each.

[7] = molecular target: T2, tetrameric LDH‐A (Homo sapiens, UniProt P00338); experiment: Steady-state kinetics of pyruvate reduction by tetrameric LDH-A; type: biochemical; conditions: variable pyruvate, 125 μM β-NADH, 2.56 nM tetramer, pH 7.5, 25°C
T2 construct: made in house; host or cells: E. coli BL21(DE3), pET9a (NdeI/BamHI)
Experimental: as §1

[8] = molecular target: T2, tetrameric LDH‐A; conditions: previous observation, cited from earlier work
Source text: Accordingly, monomeric LDH‐A features a rather high K m for pyruvate and, as previously mentioned, we interpret this feature as indicative of a secondary site for pyruvate, possibly engaged in the stabilization of the assembled tetramer.

Compound: Ac-QNGISDLVK-NH2 [Peptide C1]
action against LDH‐A (in words) [1]: ineffective

Compound: ATLKEKLI
Kd [2]: 1000 µM

Inhibition (%) of LDH‐A activity [4]: 31 ± 3%
Compound: cyclo(GQN[βAsp]) (SMILES NC(=O)CC[C@@H]1NC(=O)CNC(=O)C[C@@H](C(=O)O)NC(=O)[C@H](CC(N)=O)NC1=O) [TH2]
effect on lactate secretion [3]: no significant differences
decrease of the concentration of secreted lactate ([5]; MCF7, 80 μM peptide with Lipofectamine 2000 (0.5% v/v), 1% DMSO, Krebs-Ringer buffer, 4 h, 37°C, colorimetric, n = 3, vs cells without peptide): 20%
effect on lactate production in the absence of lipofectamine ([5]; MCF7, peptide without lipofectamine): negligible and not significant effects

K m for pyruvate, monomeric LDH‐A (assembled monomers) [6]: 561 ± 74 µM and 560 µM
K m for pyruvate, tetrameric LDH‐A [7]: 271 ± 40 µM and 271 µM
Compound: CC(=O)C(=O)O [pyruvate]
K m for pyruvate, tetrameric enzyme ([8]; ref Pasti et al., 2022): 252 µM
K m for pyruvate, tetrameric enzyme ([8]; ref Pettit et al., 1981): 398 µM
